In patent US10871495B2, “Biomarkers of polycystic kidney disease and uses thereof” (Genzyme Corporation, priority 2014, dated 2020):

Tests used:
jck mice [1] = experiment: Immunoblot of marker levels in kidney lysate of jck mice treated with GCS inhibitor; type: in vivo, mouse; conditions: jck mice treated continuously for 5 weeks (0.225% in diet), vs control mice, FIG. 3
Procedure: (§1) C57BL/6J jck/+ mice were maintained for crossing. The cystic jck/jck mice were genotyped as previously described (Smith et al., J. Am. Soc. Nephrol. 17:2821-2831, 2006). Pcy mice were maintained on a CD1 genetic background as previously described (Takahashi et al., J. Am. Soc. Nephrol. 1:980-989, 1991). GCS inhibitor C9 was administered ad libitum to jck and pcy mice by mixing in powdered 5053 diet at 0.225% from 26 to 64 days and 4 to 30 weeks of age, respectively (as described in Natoli et al., Nature Medicine 16:788-792, 2010). Urine samples from the mice were collected in metabolic cages over a 24-hour period and stored at −80° C.
(§2) Kidney samples were homogenized on ice in radioimmunoprecipitation assay (RIPA) buffer (Boston BioProducts, Ashland, Mass.) containing 1 mM dithiothreitol, 5 mM ethylenediaminetetraacetic acid (EDTA), 2 mM NaF, 1 mM Na3VO4 (all supplied by Sigma-Aldrich, St. Louis, Mo.), Pefabloc SC and Complete protease inhibitor cocktail (both from Roche, Basel, Switzerland). Protein concentration was determined by BCA protein assay (Pierce, Rockford, Ill.). The samples were loaded onto 4-12% NuPage Bis-Tris gels following the manufacturer's protocols (Invitrogen, Grand Island, N.Y.). Electrophoretic transfer of the proteins in the gel onto nitrocellulose was performed in a semi-dry apparatus according to the manufacturer's instructions (Invitrogen). After electrophoretic transfer, the resulting membranes were blocked with 5% non-fat milk in tris-buffered saline (TBS) containing 0.1% Tween-20 and incubated with primary antibodies overnight at 4° C. The primary antibodies were detected with horseradish peroxidase-labeled secondary antibodies at a 1:10,000 dilution (Promega, Fitchburg, Wis.). […] The primary antibodies to the following antigenes were used: PCNA (DAKO, Carpinteria, Calif.), cyclin D1, S6, phospho-S6 (Ser235/236), phospho-AKT (ser473), total ERK, phospho-ERK (Thr202/Tyr204) (Cell Signaling Technology, Danvers, Mass.), cyclin D3, total AKT, caspase-2, RBBP (BD Biosciences, Billerica, Mass.), MEK1 (Upstate Biotechnology, Lake Placid, N.Y.), aquaporin-2 (Millipore, Billerica, Mass.) β-actin, TSG101 (Abcam, Cambridge, Mass.), ALIX (Santa Cruz Biotechnology, Dallas, Tex.), and GAPDH (US Biological, Salem, Mass.).
(§3) A further set of experiments was performed to determine whether the same markers could be used to determine the efficacy of a treatment for PKD in a patient having PKD. In these experiments, urine samples from jck mice that were treated with GCS inhibitor C9 continuously for 5 weeks were gathered (FIG. 2) and the levels of each biomarker were analyzed in urine exosomes and kidney lysate samples. […] The data in FIG. 3 show, e.g., that the levels of PCNA, cyclin D3, RBBP, MEK, Erk, phosphorylated ERK, Akt, phosphorylated Akt, S6, phosphorylated S6, and caspase-2 are decreased in kidney lysate samples from jck mice treated with a GCS inhibitor as compared to the levels in kidney lysate samples from control mice. The data in FIG. 3 also show, e.g., that the levels of PCNA, cyclin D1, cyclin D3, MEK, and S6 are decreased in urinary exosomes from jck mice treated with a GCS inhibitor as compared to the levels in urinary exosomes from control mice.

jck mice [2] = experiment: Immunoblot of marker levels in urinary exosomes of jck mice treated with GCS inhibitor; type: in vivo, mouse; conditions: jck mice treated continuously for 5 weeks (0.225% in diet), vs control mice, FIG. 3
Procedure: as §1
(§4) Exosomes were isolated from pooled urine samples (animal studies) or mid void urine samples (human samples) by ultracentrifugation at 100,000 g for 2 hours. Following ultracentrifugation, the exosome pellet was resuspended in 2.5× Laemmli Buffer (5×: 15% SDS, 0.575 M sucrose, 0.325 M Tris, pH 6.8, 5% beta-mercapto ethanol, and 0.002% bromophenol blue) for sodium dodecyl sulfate-polyacrylamide gel electrophoresis (SDS-PAGE) and immunoblot analysis.
as §2
as §3, with “The data in FIG. 3 also show, e.g., that the levels of PCNA, cyclin D1, cyclin D3, MEK, and S6 are decreased in urinary exosomes from jck mice treated with a GCS inhibitor as compared to the levels in urinary exosomes from control mice.” left out

pcy mice [3] = experiment: Immunoblot of marker levels in kidney lysate of pcy mice treated with GCS inhibitor; type: in vivo, mouse; conditions: pcy mice treated for thirty weeks (0.225% in diet), vs untreated mice, FIG. 4
Procedure: as §1, §2
A further set of experiments was performed to validate the use of the markers described herein for both diagnosing and determining the efficacy of treatment in human patients having PKD. In these experiments, another mouse model of PKD, pcy mice were used. The pcy mouse model is a slowly progressive adult form of PKD characterized by cyst formation and fibrosis. […] In these experiments, pcy mice were left untreated or were treated with GCS inhibitor C9 for thirty weeks, and then the expression levels of the markers described herein were determined in both kidney lysate and urine exosome samples. The data from these experiments show the levels of the markers were decreased in both the kidney lysate samples and the urine exosome samples from pcy mice treated with GCS inhibitor C9 as compared to the corresponding levels in the untreated mice (FIG. 4). […] The data in FIG. 4 also show, for example, that the levels of PCNA, phosphorylated Erk, phosphorylated Akt, and S6 are decreased in urinary exosomes from pcy mice treated with GCS inhibitor C9 as compared to the untreated mice.

pcy mice [4] = experiment: Immunoblot of marker levels in urinary exosomes of pcy mice treated with GCS inhibitor; type: in vivo, mouse; conditions: pcy mice treated for thirty weeks (0.225% in diet), vs untreated mice, FIG. 4
Procedure: as §1, §4
Kidney samples were homogenized on ice in radioimmunoprecipitation assay (RIPA) buffer (Boston BioProducts, Ashland, Mass.) containing 1 mM dithiothreitol, 5 mM ethylenediaminetetraacetic acid (EDTA), 2 mM NaF, 1 mM Na3VO4 (all supplied by Sigma-Aldrich, St. Louis, Mo.), Pefabloc SC and Complete protease inhibitor cocktail (both from Roche, Basel, Switzerland). Protein concentration was determined by BCA protein assay (Pierce, Rockford, Ill.). The samples were loaded onto 4-12% NuPage Bis-Tris gels following the manufacturer's protocols (Invitrogen, Grand Island, N.Y.). Electrophoretic transfer of the proteins in the gel onto nitrocellulose was performed in a semi-dry apparatus according to the manufacturer's instructions (Invitrogen). After electrophoretic transfer, the resulting membranes were blocked with 5% non-fat milk in tris-buffered saline (TBS) containing 0.1% Tween-20 and incubated with primary antibodies overnight at 4° C. The primary antibodies were detected with horseradish peroxidase-labeled secondary antibodies at a 1:10,000 dilution (Promega, Fitchburg, Wis.). […]
A further set of experiments was performed to validate the use of the markers described herein for both diagnosing and determining the efficacy of treatment in human patients having PKD. […] In these experiments, pcy mice were left untreated or were treated with GCS inhibitor C9 for thirty weeks, and then the expression levels of the markers described herein were determined in both kidney lysate and urine exosome samples. […]

pcy mice [5] = conditions: Natoli et al., Nature Medicine 16:788-792, 2010; cited from earlier work

With CCCCCCCCC(=O)N[C@H](CN1CCCC1)[C@H](O)c1ccc2c(c1)OCCO2 [GCS inhibitor C9] the “level of Akt” value (jck mice [1]) was “decreased”, the “level of Erk” value (jck mice [1]) was “decreased” and the “level of MEK” value (jck mice [1]) was “decreased”. The “level of PCNA” value (jck mice [1]) was “decreased”, the “level of RBBP” value (jck mice [1]) was “decreased” and the “level of S6” value (jck mice [1]) was “decreased”. For the same molecule, the “level of caspase-2” value (jck mice [1]) was “decreased”, the “level of cyclin D3” value (jck mice [1]) was “decreased” and the “level of phosphorylated Akt” value (jck mice [1]) was “decreased”. For the same molecule, the “level of phosphorylated ERK” value (jck mice [1]) was “decreased”, the “level of phosphorylated S6” value (jck mice [1]) was “decreased” and the “level of MEK” value (jck mice [2]) was “decreased”. For the same molecule, the “level of PCNA” value (jck mice [2]) was “decreased”, the “level of S6” value (jck mice [2]) was “decreased” and the “level of cyclin D1” value (jck mice [2]) was “decreased”. The “level of cyclin D3” value (jck mice [2]) was “decreased”, the “level of PCNA” value (pcy mice [3]) was “decreased” and the “level of S6” value (pcy mice [3]) was “decreased”. The “level of phosphorylated Akt” value (pcy mice [3]) was “decreased”, the “level of phosphorylated Erk” value (pcy mice [3]) was “decreased” and the “level of phosphorylated S6” value (pcy mice [3]) was “decreased”. For the same molecule, the “level of PCNA” value (pcy mice [4]) was “decreased”, the “level of S6” value (pcy mice [4]) was “decreased” and the “level of phosphorylated Akt” value (pcy mice [4]) was “decreased”. The “level of phosphorylated Erk” value (pcy mice [4]) was “decreased”, the cystogenesis (pcy mice [5]) was “effective inhibition” and the fibrogenesis (pcy mice [5]) was “effective inhibition”.
